# Patent US9682960B2 (priority 2013, dated 2017)
# Values joined by “and” are separate entries in the source; they are usually repeats but may differ in a detail not shown here. Identical values can stand only once.
# Tests used:
# [1] = system: castrated (CX) immature male rats; experiment: Systemic androgenic (agonistic) activity in orchidectomized (CX) immature male rats; format: in vivo, rat
# Human Androgen Receptor = Human Androgen Receptor (Homo sapiens (Human), UniProt P10275); experiment: Androgen receptor assay: [3H]R1881 displacement, cytosol of HEK-293 cells transfected with hAR (hydroxylapatite assay); format: binding; conditions: for Human Androgen Receptor Binding RBA (%) R1881 = 100: relative binding affinity; for times more potent than OH-flutamide on the human AR (RBA ratio): versus hydroxyflutamide
# Human Androgen Receptor, sequence (P10275 whole entry): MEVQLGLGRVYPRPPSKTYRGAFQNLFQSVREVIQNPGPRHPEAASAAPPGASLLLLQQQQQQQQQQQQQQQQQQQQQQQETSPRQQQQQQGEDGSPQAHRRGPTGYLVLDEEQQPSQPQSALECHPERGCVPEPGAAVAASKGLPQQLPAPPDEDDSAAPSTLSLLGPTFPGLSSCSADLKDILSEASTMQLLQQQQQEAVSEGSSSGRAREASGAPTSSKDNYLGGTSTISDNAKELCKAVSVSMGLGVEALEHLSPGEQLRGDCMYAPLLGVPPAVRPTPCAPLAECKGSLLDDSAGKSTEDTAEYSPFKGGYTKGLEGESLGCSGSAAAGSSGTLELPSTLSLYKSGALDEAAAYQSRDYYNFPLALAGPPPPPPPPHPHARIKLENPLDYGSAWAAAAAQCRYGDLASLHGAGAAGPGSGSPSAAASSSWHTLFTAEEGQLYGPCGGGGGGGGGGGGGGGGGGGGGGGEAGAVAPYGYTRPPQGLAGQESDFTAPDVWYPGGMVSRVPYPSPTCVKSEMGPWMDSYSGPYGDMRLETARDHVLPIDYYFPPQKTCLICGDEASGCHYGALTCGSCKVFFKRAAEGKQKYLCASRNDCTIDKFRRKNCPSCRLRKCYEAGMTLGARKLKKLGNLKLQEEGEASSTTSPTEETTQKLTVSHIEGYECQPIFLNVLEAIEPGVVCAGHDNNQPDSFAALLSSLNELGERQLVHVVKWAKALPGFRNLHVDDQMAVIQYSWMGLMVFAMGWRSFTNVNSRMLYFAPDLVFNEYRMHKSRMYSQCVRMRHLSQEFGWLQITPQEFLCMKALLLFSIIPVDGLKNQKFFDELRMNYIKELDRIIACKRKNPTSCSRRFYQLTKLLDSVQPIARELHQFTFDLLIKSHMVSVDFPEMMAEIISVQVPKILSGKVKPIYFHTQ
# [2] = system: Shionogi mouse mammary carcinoma cells; experiment: In vitro androgenic/antiandrogenic activity: proliferation of Shionogi cells with or without DHT; format: cell-based; conditions: for IC50: Mus musculus, read-out: Shionogi Antiandrogenic Activity IC50, DHT (0.3 nM)-stimulated cell number
# [3] = 0.1 mg/rat/po, 7 days, bulbocavernosus muscles weight
# [4] = 0.1 mg/rat/po, 7 days, seminal vesicles weight
# [5] = 0.1 mg/rat/po, 7 days, ventral prostate weight
Structure (SMILES),"CX Agonistic activity % Stimulation Bulbo [1, 3]","CX Agonistic activity % Stimulation SV [1, 4]","CX Agonistic activity % Stimulation Prostate [1, 5]",Human Androgen Receptor Binding RBA (%) R1881 = 100 (Human Androgen Receptor; […]),IC50 [2],Human Androgen Receptor Binding RBA (%) R1881 = 100 (Human Androgen Receptor; transfected cells),"stimulation at 10^−7M on basal Shionogi cell proliferation (in words) ([2]; basal (no DHT), 10^−7M)",CX Agonistic activity % Stimulation Bulbo ([1]; 0.02 mg/rat po),CX Agonistic activity % Stimulation Prostate ([1]; 0.02 mg/rat po),CX Agonistic activity % Stimulation SV ([1]; 0.02 mg/rat po),times more potent than OH-flutamide on the human AR (RBA ratio) (Human Androgen Receptor),"% of stimulation at 10^−7M on basal Shionogi cells ([2]; basal (no DHT), 10^−7M)"
Cc1c(N2C(=O)C(C)(C)N(CCCOc3ccc(-c4ccncc4Cl)cc3)C2=S)ccc(C#N)c1Cl [EM-8977],194%,65%,72%,89.8%,100 nM,,,,,,,
CC1(C)C(=O)N(c2ccc(C#N)c(C(F)(F)F)c2)C(=S)N1CCCOc1ccc2ncccc2c1 [EM-8990],3%,1%,0%,53.6%,9.7 nM,,,,,,,
CC1(C)C(=O)N(c2ccc(C#N)c(C(F)(F)F)c2)C(=S)N1CCCOc1ccc2cccnc2c1 [EM-8991],1%,2%,2%,28.5%,38.5 nM,,,,,,,
Cc1c(N2C(=O)C(C)(C)N(CCCOc3ccc(-c4ccc(N(C)C)nc4)cc3)C2=S)ccc(C#N)c1Cl [EM-8993],123%,61%,50%,,59.5 nM,4.8%,,,,,,
Cc1c(N2C(=O)C(C)(C)N(CCCOc3ccc(-c4ccc(N(C)C)nc4)c(F)c3)C2=S)ccc(C#N)c1Cl [EM-8996],131%,53%,49%,,100 nM,48.9%,,,,,,
CC1(C)C(=O)N(c2ccc(C#N)c(C(F)(F)F)c2)C(=S)N1CCCOc1ccc2ncncc2c1 [EM-9010],5%,0%,0%,29.5%,10 nM,,,,,,,
CC1(C)C(=O)N(c2ccc(C#N)c(C(F)(F)F)c2)C(=S)N1CCCOc1ccc2cnccc2c1 [EM-9021],9%,0%,1%,166.8%,5 nM,,,,,,,
CC1(C)C(=O)N(c2ccc(C#N)c(C(F)(F)F)c2)C(=S)N1CCCOc1ccc2c(ccc[n+]2[O-])c1 [EM-9028],1%,2%,2%,,2.6 nM,25.3%,none of these compounds has any activity,,,,,
Cc1c(N2C(=O)C(C)(C)N(CCCOc3ccc(-c4cc[n+]([O-])cc4)c(Cl)c3)C2=S)ccc(C#N)c1Cl [EM-9036],,,,131%,> 100 nM,,,142 (0.02 mg/rat) %,24 (0.02 mg/rat) %,24 (0.02 mg/rat) %,,
Cc1ccc2cc(OCCCN3C(=O)N(c4ccc(C#N)c(C(F)(F)F)c4)C(=O)C3(C)C)ccc2n1 [EM-9090],11%,0%,1%,2.5%,33.1 nM,,,,,,,
Cc1ccc2cc(OCCCN3C(=O)N(c4ccc(C#N)c(C(F)(F)F)c4)C(=O)C3(C)C)ccc2[n+]1[O-] [EM-9093],9%,0%,0%,0.6%,23.1 nM,,,,,,,
Cc1c(N2C(=O)N(CCCOc3ccc(-c4ccncc4)c(F)c3)C(C)(C)C2=O)ccc(C#N)c1Cl [EM-9253],114±18% and 114 ± 18 (n = 2) %,18 ± 2 (n = 2) %,34 ± 1 (n = 2) %,125%,29.9 nM,,,,,,595 times,
Cc1c(N2C(=O)N(CCCOc3ccc(-c4cc[n+]([O-])cc4)c(F)c3)C(C)(C)C2=O)ccc(C#N)c1Cl [EM-9254],101 ± 5 (n = 3) %,23 ± 1 (n = 3) %,47 ± 6 (n = 3) %,,54.8 nM,38.8%,,,,,,
Cc1c(N2C(=O)N(CCCOc3ccc(-c4ccncc4)c(Cl)c3)C(C)(C)C2=O)ccc(C#N)c1Cl [EM-9290],88±2% and 88 ± 12 (n = 2) %,16 ± 2 (n = 2) %,39 ± 6 (n = 2) %,,64.8 nM,197%,,,,,938 times,25%
Cc1c(N2C(=O)N(CCCOc3ccc(-c4cc[n+]([O-])cc4)c(Cl)c3)C(C)(C)C2=O)ccc(C#N)c1Cl [EM-9291],91 ± 2 (n = 2) %,21 ± 7 (n = 2) %,47 ± 7 (n = 2) %,,75.5 nM,64.2%,,,,,,
Cc1c(N2C(=O)N(CCCOc3ccc(-c4ccncc4)cc3F)C(C)(C)C2=O)ccc(C#N)c1Cl [EM-9297],120%,26%,31%,101%,72.8 nM,,,,,,,
Cc1c(N2C(=O)N(CCCOc3ccc(-c4ccncc4)cc3)C(C)(C)C2=O)ccc(C#N)c1Cl [EM-9300],127 ± 8 (n = 2) %,25 ± 2 (n = 2) %,40 ± 3 (n = 2) %,77.8%,62.2 nM,,,,,,,
Cc1c(N2C(=O)N(CCCOc3ccc(-c4cc[n+]([O-])cc4)cc3F)C(C)(C)C2=O)ccc(C#N)c1Cl [EM-9301],104 ± 17 (n = 2) %,29 ± 2 (n = 2) %,42 ± 1 (n = 2) %,34.6%,55.7 nM,,,,,,,
Cc1c(N2C(=O)N(CCCOc3ccc4ccc[n+]([O-])c4c3)C(C)(C)C2=O)ccc(C#N)c1Cl [EM-9302],57%,8%,29%,1.3%,110 nM,,,,,,,
Cc1c(N2C(=O)N(CCCOc3ccc(-c4cc[n+]([O-])cc4)cc3)C(C)(C)C2=O)ccc(C#N)c1Cl [EM-9305],110 ± 5 (n = 2) %,28 ± 3 (n = 2) %,34 ± 5 (n = 2) %,26.2%,32.3 nM,,,,,,,
Cc1c(N2C(=O)N(CCCOc3ccc(-c4ccncc4)cc3C(F)(F)F)C(C)(C)C2=O)ccc(C#N)c1Cl [EM-9309],107±9% and 107 ± 9 (n = 2) %,24 ± 2 (n = 2) %,36 ± 1 (n = 2) %,157%,66.9 nM,,,,,,748 times,13%
Cc1c(N2C(=O)N(CCCOc3ccc(-c4ccncc4Cl)cc3)C(C)(C)C2=O)ccc(C#N)c1Cl [EM-9310],109 ± 9 (n = 2) %,18 ± 2 (n = 2) %,44 ± 7 (n = 2) %,92.8%,60 nM,,,,,,,
Cc1c(N2C(=O)N(CCCOc3ccc(-c4ccncc4F)cc3)C(C)(C)C2=O)ccc(C#N)c1Cl [EM-9311],119 ± 8 (n = 2) %,24 ± 3 (n = 2) %,39 ± 1 (n = 2) %,89.0%,> 100 nM,,,,,,,
